From article PMC8708390, “Fatty Acid Modification of the Anticancer Peptide LVTX-9 to Enhance Its Cytotoxicity against Malignant Melanoma Cells” (Toxins, 2021)
Where no end group is shown, it is not given here.

Experiments:
[1] = Dynamic light scattering (hydrodynamic size, PDI, zeta potential); assay type: physicochemical; details: 100 µM in ultrapure water, 25 °C, repeated three times
Protocol: (§1) Dynamic light scattering (DLS) of Zetasizer Nano ZSP (Malvern Instruments, Malvern, UK) apparatus was used to determine the hydrodynamic size and zeta potential of LVTX-9 and LVTX-9-C18. The peptides concentrations were diluted to 100 µM with ultrapure water with a final volume of 1 mL. The procedure ran at 25 °C, with each experiment repeated three times. The secondary structures of LVTX-9 and LVTX-9-C18 were determined to be in line with the previous protocol. The peptide concentrations were then diluted to 100 µM with ultrapure water and 100 mM of SDS was added in a final volume of 250 μL. The procedure was carried out at 25 °C. CD spectra were recorded between 180 nm and 280 nm on a Jasco J-815 CD spectrometer.

[2] = Circular dichroism secondary structure; assay type: physicochemical; details: 100 µM, 25 °C, 180-280 nm
Protocol: as §1

[3] = tested on: B16-F10 cells; experiment: Colony formation assay; assay type: cell-based, mouse; details: 10 μM, 7 days, crystal violet, mean ± SD, n = 3, control group 51 ± 12.0
Protocol: To detect the proliferation of B16-F10 cells treated with LVTX-9 and LVTX-9-C18 at low concentrations, digested cells were counted using a Cellometer K2 and seeded into a 12-well plate with approximately 100 cells per well. After 36 h, cells were treated with LVTX-9 (10 μM) and LVTX-9-C18 (1 μM), then incubated for 7 days at 37 °C in a humidified 5% CO2 atmosphere. Visible colonies were stained with 0.5% crystal violet and photographically recorded. The colony formation rates were calculated, and curves were manufactured by GraphPad prism 5.0.

[4] = tested on: erythrocytes; experiment: Hemolytic activity; assay type: cell-based; details: 1% RBC in PBS, 30 min at 37 °C, absorbance 450 nm, 0.1% Triton-X 100 positive control
Protocol: The hemolytic activity levels of LVTX-9 and LVTX-9-C18 were confirmed as follows. Red blood cells (RBC) were washed with sterile PBS and centrifuged for 5 min at 1000 rpm. The supernatant was removed, and cells were resuspended in PBS at a final concentration of 1% (5 × 10^6/mL). The diluted RBC suspension (50 µL) was mixed with PBS (negative control), 0.1% Triton-X 100 (positive control), and LVTX-9 or LVTX-9-C18 with various concentrations at a 1:1 ratio. The mixtures were incubated for 30 min at 37 °C, then centrifuged for 5 min at 12,000 rpm. The supernatant (90 µL) was added to a new 96-well plate to measure the absorbance at 450 nm using a microplate reader, and we produced hemolytic activity curves by GraphPad prism 5.0.

ASIGALIQKAIALIKAKAA-NH2 (C-terminus assumed) [LVTX-9]
PDI (hydrodynamic size, DLS) [1]: 0.65 ± 0.0481 | secondary structure (CD) in 100 mM of SDS ([2]; 100 mM SDS): α-helical conformation | secondary structure (CD) in ultrapure water ([2]; ultrapure water): random coil conformation | colony number at 10 μM [3]: 58 ± 11.4 | hemolytic activity at 200 μM [4]: almost no hemolytic activity
